From ChEMBL document CHEMBL3352668, “Synthesis and antibacterial evaluation of new, unsymmetrical triaryl bisamidine compounds” (Bioorg Med Chem Lett, 2014)
In brackets after ≈: the same amount, converted by molar mass.

Experiments:
[1] = tested on: Klebsiella pneumoniae; test: Antimicrobial activity against Klebsiella pneumoniae 13882 by CLSI method; type: functional; details: Klebsiella pneumoniae, 13882; read-out: MIC
[2] = tested on: Escherichia coli; test: Antimicrobial activity against TolC+ Escherichia coli 700 by CLSI method; type: functional; details: Escherichia coli, 700; read-out: MIC
[3] = tested on: Escherichia coli; test: Antimicrobial activity against TolC-deficient Escherichia coli by CLSI method; type: functional
[4] = tested on: Bacillus subtilis; test: Antimicrobial activity against Bacillus subtilis BD54 by CLSI method; type: functional; details: Bacillus subtilis, BD54; read-out: MIC
[5] = tested on: Enterococcus faecalis; test: Antimicrobial activity against vancomycin-resistant Enterococcus faecalis ATCC 51575 by CLSI method; type: functional; details: Enterococcus faecalis, ATCC 51575; read-out: MIC
[6] = tested on: Bacillus anthracis; test: Antimicrobial activity against Bacillus anthracis Sterne by CLSI method; type: functional
[7] = tested on: Staphylococcus aureus; test: Antimicrobial activity against methicillin-resistant Staphylococcus aureus 1094 by CLSI method; type: functional; details: Staphylococcus aureus, 1094; read-out: MIC
[8] = tested on: Pseudomonas aeruginosa; test: Antimicrobial activity against Pseudomonas aeruginosa PAO1 by CLSI method; type: functional; details: Pseudomonas aeruginosa, PAO1; read-out: MIC
[9] = Cytotoxicity against human HeLa cells by MTS assay; type: cell-based; details: HeLa cells
[10] = Escherichia coli, read-out: MIC
[11] = Bacillus anthracis, Sterne, read-out: MIC

CC1CNC(c2ccc3cc(-c4ccc(-c5cc6ccc(C7=NC(C)CN7)cc6o5)cc4)[nH]c3c2)=N1 (stereo in doubt) showed an MIC [1] of 2.5 µg/mL (≈ 5.28 µM), an MIC [2] of 0.63 µg/mL (≈ 1.33 µM) and an MIC [3] of 0.63 µg/mL (≈ 1.33 µM). For the same molecule, the MIC [4] was 0.2 µg/mL (≈ 0.422 µM), the MIC [5] was 0.39 µg/mL (≈ 0.824 µM) and the MIC [6] was 0.31 µg/mL (≈ 0.655 µM). It also gave an MIC [7] of 0.31 µg/mL (≈ 0.655 µM), an MIC [8] of 60 µg/mL (≈ 127 µM) and a CC50 [9] of 5.7 µg/mL (≈ 12 µM).
For CC1CNC(c2ccc3cc(-c4ccc(-c5ccc(N(C)C)cc5)cc4)[nH]c3c2)=N1 (configuration not stated), the MIC [1] was over 80 µg/mL, the MIC [2] was over 80 µg/mL and the MIC [3, 10] was over 80 µg/mL. It also gave an MIC [4] of 0.63 µg/mL (≈ 1.6 µM), an MIC [5] of 3.3 µg/mL (≈ 8.36 µM) and an MIC [6, 11] of 2.1 µg/mL (≈ 5.32 µM). It also gave an MIC [7] of 1.04 µg/mL (≈ 2.64 µM), an MIC [8] of over 80 µg/mL and a CC50 [9] of at most 0.63 µg/mL.
Work on CC1CNC(c2ccc3cc(-c4ccc(-c5cnc(N6CCOCC6)nc5)cc4)[nH]c3c2)=N1 (configuration not stated) yielded an MIC [1] of over 80 µg/mL, an MIC [2] of over 80 µg/mL and an MIC [3, 10] of 60 µg/mL (≈ 137 µM). The MIC [4] was 10 µg/mL (≈ 22.8 µM), the MIC [5] was over 80 µg/mL and the MIC [6, 11] was 22.5 µg/mL (≈ 51.3 µM). For the same molecule, the MIC [7] was over 80 µg/mL, the MIC [8] was over 80 µg/mL and the CC50 [9] was 1.3 µg/mL (≈ 2.96 µM).
With CN(C)c1ccc(-c2ccc(-c3cc4ccc(C5=NCCCN5)cc4[nH]3)cc2)cc1 the MIC [1] was over 80 µg/mL, the MIC [2] was over 80 µg/mL and the MIC [3, 10] was over 80 µg/mL. It also gave an MIC [4] of 0.63 µg/mL (≈ 1.6 µM), an MIC [5] of 3.1 µg/mL (≈ 7.86 µM) and an MIC [6, 11] of 0.47 µg/mL (≈ 1.19 µM). The MIC [7] was 1.09 µg/mL (≈ 2.76 µM), the MIC [8] was over 80 µg/mL and the CC50 [9] was at most 0.63 µg/mL.
Molecule FC1CN=C(c2ccc3cc(-c4ccc(-c5cc6ccc(C7=NCC(F)CN7)cc6o5)s4)[nH]c3c2)NC1 (configuration not stated) has an MIC [1] of 2.5 µg/mL (≈ 4.85 µM), an MIC [2] of 1.25 µg/mL (≈ 2.42 µM) and an MIC [3, 10] of 0.31 µg/mL (≈ 0.601 µM). The MIC [4] was 0.16 µg/mL (≈ 0.31 µM), the MIC [5] was 0.63 µg/mL (≈ 1.22 µM) and the MIC [6, 11] was 0.31 µg/mL (≈ 0.601 µM). The MIC [7] was 0.63 µg/mL (≈ 1.22 µM), the MIC [8] was 53.3 µg/mL (≈ 103 µM) and the CC50 [9] was 22.5 µg/mL (≈ 43.6 µM).
Molecule FC1CN=C(c2ccc3cc(-c4ccc(-c5cc6ccc(C7=NCC(F)CN7)cc6o5)cn4)[nH]c3c2)NC1 (configuration not stated) has an MIC [1] of 2.5 µg/mL (≈ 4.9 µM), an MIC [2] of 8.3 µg/mL (≈ 16.3 µM) and an MIC [3, 10] of 0.31 µg/mL (≈ 0.607 µM). It also gave an MIC [4] of 0.16 µg/mL (≈ 0.313 µM), an MIC [5] of 0.63 µg/mL (≈ 1.23 µM) and an MIC [6, 11] of 0.63 µg/mL (≈ 1.23 µM). For the same molecule, the MIC [7] was 0.83 µg/mL (≈ 1.63 µM), the MIC [8] was 8.3 µg/mL (≈ 16.3 µM) and the CC50 [9] was 19.6 µg/mL (≈ 38.4 µM).
With c1cc2cc(-c3ccc(-c4cn5cc(C6=NCCN6)ccc5n4)cc3)[nH]c2cc1C1=NCCN1 the MIC [1] was 80 µg/mL (≈ 180 µM), the MIC [2] was 40 µg/mL (≈ 89.8 µM) and the MIC [3, 10] was 0.63 µg/mL (≈ 1.41 µM). It also gave an MIC [4] of 0.31 µg/mL (≈ 0.696 µM), an MIC [5] of 20 µg/mL (≈ 44.9 µM) and an MIC [6, 11] of 40 µg/mL (≈ 89.8 µM). For the same molecule, the MIC [7] was 80 µg/mL (≈ 180 µM) and the MIC [8] was over 80 µg/mL.
Work on c1cc2cc(-c3ccc(-c4cc5ccc(C6=NCCN6)cc5o4)s3)[nH]c2cc1C1=NCCN1 yielded an MIC [1] of 60 µg/mL (≈ 133 µM), an MIC [2] of 2.8 µg/mL (≈ 6.2 µM) and an MIC [3, 10] of 0.27 µg/mL (≈ 0.598 µM). The MIC [4] was 0.16 µg/mL (≈ 0.354 µM), the MIC [5] was 1.56 µg/mL (≈ 3.45 µM) and the MIC [6, 11] was 1.09 µg/mL (≈ 2.41 µM). The MIC [7] was 0.94 µg/mL (≈ 2.08 µM), the MIC [8] was 66.7 µg/mL (≈ 148 µM) and the CC50 [9] was 182 µg/mL (≈ 403 µM).
NCCCNc1cc(-c2cc3ccc(C4=NCCCN4)cc3[nH]2)ccc1-c1cc2ccc(C3=NCCCN3)cc2o1 showed an MIC [1] of 1.25 µg/mL (≈ 2.29 µM), an MIC [2] of 2.5 µg/mL (≈ 4.58 µM) and an MIC [3, 10] of 0.63 µg/mL (≈ 1.15 µM). The MIC [4] was 0.24 µg/mL (≈ 0.44 µM), the MIC [5] was 1.25 µg/mL (≈ 2.29 µM) and the MIC [6, 11] was 0.63 µg/mL (≈ 1.15 µM). The MIC [7] was 0.63 µg/mL (≈ 1.15 µM), the MIC [8] was 2.5 µg/mL (≈ 4.58 µM) and the CC50 [9] was 4.6 µg/mL (≈ 8.43 µM).
With Cc1c(-c2ccc(-c3cc4ccc(C5=NCCCN5)cc4o3)cc2)[nH]c2cc(C3=NCCCN3)ccc12 the MIC [1] was 0.31 µg/mL (≈ 0.636 µM), the MIC [2] was 0.31 µg/mL (≈ 0.636 µM) and the MIC [3, 10] was 0.31 µg/mL (≈ 0.636 µM). It also gave an MIC [4] of 0.08 µg/mL (≈ 0.164 µM), an MIC [5] of 0.16 µg/mL (≈ 0.328 µM) and an MIC [6, 11] of 0.08 µg/mL (≈ 0.164 µM). The MIC [7] was 0.16 µg/mL (≈ 0.328 µM), the MIC [8] was 1.25 µg/mL (≈ 2.56 µM) and the CC50 [9] was 1.5 µg/mL (≈ 3.08 µM).
Work on c1cc2cc(-c3ccc(-c4cnc(N5CCOCC5)nc4)cc3)[nH]c2cc1C1=NCCCN1 yielded an MIC [1] of 70 µg/mL (≈ 160 µM), an MIC [2] of 35 µg/mL (≈ 79.8 µM) and an MIC [3, 10] of 0.63 µg/mL (≈ 1.44 µM). For the same molecule, the MIC [4] was 0.78 µg/mL (≈ 1.78 µM), the MIC [5] was 3.75 µg/mL (≈ 8.55 µM) and the MIC [6, 11] was 0.55 µg/mL (≈ 1.25 µM). The MIC [7] was 7.5 µg/mL (≈ 17.1 µM), the MIC [8] was over 80 µg/mL and the CC50 [9] was 2 µg/mL (≈ 4.56 µM).
Molecule COC1CN=C(c2ccc3cc(-c4ccc(-c5cc6ccc(C7=NCC(OC)CN7)cc6o5)cc4)[nH]c3c2)NC1 (configuration not stated) has an MIC [1] of 1.25 µg/mL (≈ 2.34 µM), an MIC [2] of 2.5 µg/mL (≈ 4.68 µM) and an MIC [3, 10] of 0.24 µg/mL (≈ 0.45 µM). The MIC [4] was 0.08 µg/mL (≈ 0.15 µM), the MIC [5] was 0.63 µg/mL (≈ 1.18 µM) and the MIC [6, 11] was 0.31 µg/mL (≈ 0.581 µM). The MIC [7] was 0.31 µg/mL (≈ 0.581 µM), the MIC [8] was over 80 µg/mL and the CC50 [9] was 6 µg/mL (≈ 11.2 µM).
